Measured values from patent publication US20240024324A1, “KINASE INHIBITOR COMBINATIONS FOR CANCER TREATMENT” (Merck Patent GmbH, priority 2020, published 2024).

Key:
[1] = tested on: GSC11; assay: Induction of apoptosis in GSC lines in vitro; assay type: cell-based
Method: (§1) FIG. 1: In vitro analyses in GSC lines. (A) Western blot analysis of protein expression; (B) IC50 of M2698; (C) IC50 of pimasertib; and (D) apoptotic GSC11, GSC7-2, and GSC17 cells after treatment with M2698, pimasertib, or M2698+pimasertib combination. […]
(§2) Induction of apoptosis by M2698, pimasertib, and the combination was measured in three of five GSC lines that were sensitive to M2698 in vitro.

[2] = tested on: GSC17; assay: Induction of apoptosis in GSC lines in vitro; assay type: cell-based
Method: as §1, §2

[3] = tested on: GSC7-2; assay: Induction of apoptosis in GSC lines in vitro; assay type: cell-based
Method: as §1, §2

[4] = tested on: Her2+/HR− Breast Cancer PDX; assay: PDX models of Her2+/HR- breast cancer; assay type: in vivo
[5] = tested on: SCCHN PDX; assay: 38 PDX models of SCCHN, 1+1 screen; assay type: in vivo, mouse; conditions: 38 models, M2698 25 mg/kg PO QDx28, Cetuximab 30 mg/kg IP 2wklyx4
Method: 46 SCCHN PDX models were run in a 1+1 scheme (one mouse per treatment group). […] With the adjustment to the cancellation, 38 models were completed. […] After implantation, treatments began when average tumor volume reached ˜200 mm^3 for each model. Tumor volumes were measured for each model until the control tumor reached ˜1200 mm^3 at which time all animals for that model were euthanized.

[6] = tested on: Akt; conditions: variety of cell-based assays; cited from earlier work
[7] = tested on: human cholangiocarcinoma cancer PDX; assay: PDX models of cholangiocarcinoma; assay type: in vivo, mice; conditions: 20 mg/kg each agent QD PO
Excerpt: The objective of this experiment was to evaluate the antitumor activity of M2698 alone and in combination with Pimasertib in a panel of 13 Patient-Derived Xenograft models representing human cholangiocarcinoma cancer derived from Chinese patients in immune-deficient mice.
Vehicle: 0.5% Methocel/0.25% Tween20 in Milli-Q Water. Tumors from three untreated mice were collected as satellite samples when reached a tumor volume between 300-500 mm3.

[8] = tested on: Colorectal Cancer PDX; assay: 75 PDX models of colorectal cancer; assay type: in vivo; conditions: CRC PDX; M2698 25 mg/kg po qd, Pimasertib 20 mg/kg po qd, Cetuximab 20 mg/kg ip q2w
Excerpt: Of the 75 models, 25 were wild type, 25 KRas mutant, and 25 BRaf mutant.

[9] = tested on: human GBM; conditions: orthotopically implanted models of human GBM; cited from earlier work
[10] = tested on: Non-Small Lung Cancer (NSCLC) Brain Metastases PDX; assay: PDX models of NSCLC brain metastases; assay type: in vivo
[11] = tested on: GSC11; assay: Orthotopic GSC xenograft model; assay type: in vivo, mice
Method: (§3) The in vivo effects of M2698 and pimasertib, alone and in combination, were assessed in the GSC models after orthotopic implantation into mice. Treatment duration and time of euthanasia post-implantation was 5-10 weeks. Endpoints were expression of PD markers pS6 and pERK, proliferation marker Ki67, apoptosis as measured by TUNEL, tumor volume and survival.

[12] = tested on: GSC6-27; assay: Orthotopic GSC xenograft model; assay type: in vivo, mice
Method: as §3

[13] = tested on: GSC231; assay: Orthotopic GSC xenograft model; assay type: in vivo, mice
Method: as §3

[14] = tested on: GSC272; assay: Orthotopic GSC xenograft model; assay type: in vivo, mice
Method: as §3

[15] = tested on: GSC17; assay: Orthotopic GSC xenograft model; assay type: in vivo, mice
Method: as §3

[16] = tested on: GSC7-2; assay: Orthotopic GSC xenograft model; assay type: in vivo, mice
Method: as §3

[17] = tested on: GSC20; assay: Orthotopic GSC xenograft model; assay type: in vivo, mice
Method: as §3

[18] = tested on: cancer cell lines; conditions: broad panel of cancer cell lines; cited from earlier work
[19] = tested on: GSC8-11; assay: GSC lines: sensitivity in vitro (IC50); assay type: cell-based; conditions: GSC8-11 line in vitro
Method: (§4) FIG. 1: In vitro analyses in GSC lines. (A) Western blot analysis of protein expression; (B) IC50 of M2698; (C) IC50 of pimasertib; and (D) apoptotic GSC11, GSC7-2, and GSC17 cells after treatment with M2698, pimasertib, or M2698+pimasertib combination. Single agents were tested at their IC50; half the IC50 of each compound was used for the combination.
(§5) All GSC lines expressed Akt. Relatively high pAkt expression in GSC17, GSC7-2, GSC231, GSC11, GSC20, GSC6-27, and GSC8-11 lines compared with GSC272 and GSC267 (FIG. 1A).

[20] = tested on: GSC11; assay: GSC lines: sensitivity in vitro (IC50); assay type: cell-based; conditions: GSC11 line in vitro
Method: as §4, §5

[21] = tested on: GSC6-27; assay: GSC lines: sensitivity in vitro (IC50); assay type: cell-based; conditions: GSC6-27 line in vitro
Method: as §4, §5

[22] = tested on: GSC231; assay: GSC lines: sensitivity in vitro (IC50); assay type: cell-based; conditions: GSC231 line in vitro
Method: as §4, §5

[23] = tested on: GSC17; assay: GSC lines: sensitivity in vitro (IC50); assay type: cell-based; conditions: GSC17 line in vitro
Method: as §4, §5

[24] = tested on: GSC7-2; assay: GSC lines: sensitivity in vitro (IC50); assay type: cell-based; conditions: GSC7-2 line in vitro
Method: as §4, §5

[25] = tested on: GSC20; assay: GSC lines: sensitivity in vitro (IC50); assay type: cell-based; conditions: GSC20 line
Method: as §4, §5

[26] = in vivo; cited from earlier work
[27] = target: p70S6K (Homo sapiens, UniProt P23443); conditions: variety of cell-based assays; cited from earlier work
p70S6K, sequence (P23443 whole entry): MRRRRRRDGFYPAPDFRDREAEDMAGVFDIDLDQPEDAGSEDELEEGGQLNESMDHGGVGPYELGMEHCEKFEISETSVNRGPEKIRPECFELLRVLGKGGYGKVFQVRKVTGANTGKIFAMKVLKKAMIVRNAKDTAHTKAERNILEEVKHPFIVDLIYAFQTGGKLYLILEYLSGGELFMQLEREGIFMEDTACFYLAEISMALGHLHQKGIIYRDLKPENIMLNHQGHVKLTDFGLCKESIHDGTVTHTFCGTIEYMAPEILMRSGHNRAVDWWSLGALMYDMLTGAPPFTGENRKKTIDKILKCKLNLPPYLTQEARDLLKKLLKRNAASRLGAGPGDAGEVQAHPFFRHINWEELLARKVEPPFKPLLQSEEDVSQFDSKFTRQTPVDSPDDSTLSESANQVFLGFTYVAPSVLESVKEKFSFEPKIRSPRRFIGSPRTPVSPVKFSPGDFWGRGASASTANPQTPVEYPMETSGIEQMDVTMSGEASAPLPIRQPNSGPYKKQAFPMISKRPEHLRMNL

NC(=O)c1cccc2c(N[C@H](CN3CCC3)c3ccc(Cl)c(C(F)(F)F)c3)ncnc12 [M2698, 4-[(S)-2-Azetidin-1-yl-1-(4-chloro-3-trifluoromethyl-phenyl)-ethylamino]-quinazoline-8-carboxylic acid amide]
apoptotic percentage ([1]; GSC11, monotherapy at 2×IC50): 62%
apoptotic percentage ([1]; GSC11, monotherapy at the IC50): 56%
apoptotic percentage ([2]; GSC17, monotherapy at 2×IC50): 12%
apoptotic percentage ([2]; GSC17, monotherapy at the IC50): 11%
apoptotic percentage ([3]; GSC7-2, monotherapy at 2×IC50): 17%
apoptotic percentage ([3]; GSC7-2, monotherapy at the IC50): 13%
tumor volume over the duration of the experiment [4]: stasis of the tumor volume
Models with an Overall Response (“RECIST”) [5]: 7/38
Partial response (number of models) [5]: 0
Tumor Progression (number of models) [5]: 31
Tumor Stasis (number of models) [5]: 7
tumor control rate (TCR) [5]: 18%
inhibition of Akt [6]: highly potent
tumor stasis, number of tumor samples [7]: 2/12
tumor stasis, share of tumor samples [7]: 17%
tumor control rate (TCR) [8]: 15%
tumor control rate (TCR), models controlled/models [8]: 11/74
survival [9]: prolongs survival
tumor growth [9]: reduces tumor growth
tumor control rate (TCR) [10]: 5%
pERK expression in orthotopic tumor ([11]; GSC11, PD marker): reduced pERK
pS6 expression in orthotopic tumor ([11]; GSC11, PD marker): significantly reduced pS6
tumor volume / tumor growth ([11]; GSC11 orthotopic, vs vehicle): had a trend to do so
pERK expression in orthotopic tumor ([12]; GSC6-27, PD marker): reduced pERK
pS6 expression in orthotopic tumor ([12]; GSC6-27, PD marker): significantly reduced pS6
tumor volume / tumor growth ([12]; GSC6-27 orthotopic, vs vehicle): significantly inhibited tumor growth
pERK expression in orthotopic tumor ([13]; GSC231, PD marker): reduced pERK
pS6 expression in orthotopic tumor ([13]; GSC231, PD marker): significantly reduced pS6
median survival ([13]; GSC231 orthotopic, vs vehicle): prolonged survival
tumor volume / tumor growth ([13]; GSC231 orthotopic, vs vehicle): significantly inhibited tumor growth
pERK expression in orthotopic tumor ([14]; GSC272, PD marker): reduced pERK
pS6 expression in orthotopic tumor ([14]; GSC272, PD marker): significantly reduced pS6
median survival ([14]; GSC272 orthotopic, vs vehicle): prolonged survival
tumor volume / tumor growth ([14]; GSC272 orthotopic, vs vehicle): significantly inhibited tumor growth
pERK expression in orthotopic tumor ([15]; GSC17, PD marker): reduced pERK
pS6 expression in orthotopic tumor ([15]; GSC17, PD marker): significantly reduced pS6
tumor volume / tumor growth ([15]; GSC17 orthotopic, vs vehicle): significantly inhibited tumor growth
proliferation (Ki67 by immunohistochemistry) ([15]; GSC17 tumor sections, compared to vehicle): significantly reduced proliferation
pERK expression in orthotopic tumor ([16]; GSC7-2, PD marker): reduced pERK
pS6 expression in orthotopic tumor ([16]; GSC7-2, PD marker): significantly reduced pS6
tumor volume / tumor growth ([16]; GSC7-2 orthotopic, vs vehicle): significantly inhibited tumor growth
proliferation (Ki67 by immunohistochemistry) ([16]; GSC7-2 tumor sections, compared to vehicle): significantly reduced proliferation
number of apoptotic cells/field ([16]; GSC7-2 xenografts, after 10 weeks): 52.17±25.20 cells/field
apoptosis in xenografts vs control ([16]; GSC7-2 xenografts, at 7.5 weeks): Neither M2698, pimasertib, nor combination treatment significantly affected apoptosis
pS6 expression in orthotopic tumor ([17]; GSC20, PD marker): lack of significant response
tumor volume / tumor growth ([17]; GSC20 orthotopic, vs vehicle): had not responded
anti-tumor activity [18]: potent anti-tumor activity
IC50 [19]: < 2000 nM
IC50 [20]: < 2000 nM
IC50 [21]: < 2000 nM
IC50 [22]: < 2000 nM
IC50 [23]: < 2000 nM
IC50 [24]: < 2000 nM
sensitivity in vitro [25]: insensitivity
blood-brain barrier penetration [26]: crosses the blood-brain barrier
inhibition of p70S6K [27]: highly potent
